In PubChem BioAssay AID1963451 (Molecular Pharmacology Branch, DTP, NCI, 2024):
“And” between values parts separate entries of the source, which are not always exact repeats. Identical values can stand only once.

Tested on: 521955-158-R6-J3-PDC complex spheroid growth, % test/control
Assay: Anticancer human tumor 521955-158-R6-J3-PDC patient-derived pancreatic carcinoma cell line growth inhibition [Asc]
Conditions: for viability, T/C: stronger effect = lower value
How it was run: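 Stromal components (HUVEC and hMSC) are co-assembled with the cancer cells into multicellular spheroids. Drugs are then added singly or paired, at concentrations falling by half-log increments from a clinically achievable maximum, capped at 10 microM without known Cmax.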

[1] = curve of first compound, second compound 0.0316 µM
[2] = curve of first compound, second compound 0.1 µM
[3] = curve of first compound, second compound 0.316 µM
[4] = curve of first compound, second compound 1 µM
[5] = curve of first compound, second compound 0.00316 µM
[6] = curve of first compound, second compound 0.01 µM
[7] = second compound 0.00316 µM, first compound 0.0316 µM
[8] = second compound 0.00316 µM, first compound 0.1 µM
[9] = second compound 0.00316 µM, first compound 0.316 µM
[10] = second compound 0.00316 µM, first compound 1 µM
[11] = second compound 0.01 µM, first compound 0.0316 µM
[12] = second compound 0.01 µM, first compound 0.1 µM
[13] = second compound 0.01 µM, first compound 0.316 µM
[14] = second compound 0.01 µM, first compound 1 µM
[15] = second compound 0.0316 µM, first compound 0.0316 µM
[16] = second compound 0.0316 µM, first compound 0.1 µM
[17] = second compound 0.0316 µM, first compound 0.316 µM
[18] = second compound 0.0316 µM, first compound 1 µM
[19] = second compound 0.1 µM, first compound 0.0316 µM
[20] = second compound 0.1 µM, first compound 0.1 µM
[21] = second compound 0.1 µM, first compound 0.316 µM
[22] = second compound 0.1 µM, first compound 1 µM
[23] = second compound 0.316 µM, first compound 0.0316 µM
[24] = second compound 0.316 µM, first compound 0.1 µM
[25] = second compound 0.316 µM, first compound 0.316 µM
[26] = second compound 0.316 µM, first compound 1 µM
[27] = second compound 1 µM, first compound 0.0316 µM
[28] = second compound 1 µM, first compound 0.1 µM
[29] = second compound 1 µM, first compound 0.316 µM
[30] = second compound 1 µM, first compound 1 µM
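Further: spheroids exposed to compounds for 7 days.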
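Wherever viability, T/C is given: 100% = DMSO vehicle control wells.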

## CCN1C(C(=O)NC23CCC(C(=O)O)(CC2)CC3)C(c2cccc(Cl)c2F)C2(C(=O)Nc3cc(Cl)ccc32)C12CCCCC2 (stereo not given) + Cc1c(S(C)(=O)=O)c(-c2cc(F)cc(N3CCN(c4ccc(NS(=O)(=O)c5ccc(NC(CCN6CCC(C(=O)OCCCP(=O)(O)O)CC6)CSc6ccccc6)c(S(=O)(=O)C(F)(F)F)c5)cc4)CC3)c2)c(-c2ccc(Cl)cc2)n1C(C)C
[1]
  IC50: > 3 µM
[2]
  IC50: > 3 µM
[3]
  IC50: < 0.00949 µM
[4]
  IC50: < 0.00949 µM
Curve of first compound, second compound 3.16 µM
  IC50: < 0.00949 µM
Curve of first compound, second compound 10 µM
  IC50: < 0.00949 µM
Second compound 0.0316 µM, first compound 0.00949 µM
  viability, T/C: 102%
Second compound 0.0316 µM, first compound 0.03 µM
  viability, T/C: 78.8%
Second compound 0.0316 µM, first compound 0.0949 µM
  viability, T/C: 72.6%
Second compound 0.0316 µM, first compound 0.3 µM
  viability, T/C: 70.7%
Second compound 0.0316 µM, first compound 0.949 µM
  viability, T/C: 84.2%
Second compound 0.0316 µM, first compound 3 µM
  viability, T/C: 73.2%
Second compound 0.1 µM, first compound 0.00949 µM
  viability, T/C: 77.7%
Second compound 0.1 µM, first compound 0.03 µM
  viability, T/C: 75.7%
Second compound 0.1 µM, first compound 0.0949 µM
  viability, T/C: 67.4%
Second compound 0.1 µM, first compound 0.3 µM
  viability, T/C: 66.5%
Second compound 0.1 µM, first compound 0.949 µM
  viability, T/C: 69.4%
Second compound 0.1 µM, first compound 3 µM
  viability, T/C: 50.8%
Second compound 0.316 µM, first compound 0.00949 µM
  viability, T/C: 49.2%
Second compound 0.316 µM, first compound 0.03 µM
  viability, T/C: 51.8%
Second compound 0.316 µM, first compound 0.0949 µM
  viability, T/C: 44%
Second compound 0.316 µM, first compound 0.3 µM
  viability, T/C: 45.4%
Second compound 0.316 µM, first compound 0.949 µM
  viability, T/C: 41.2%
Second compound 0.316 µM, first compound 3 µM
  viability, T/C: 31.7%
Second compound 1 µM, first compound 0.00949 µM
  viability, T/C: 41.2%
Second compound 1 µM, first compound 0.03 µM
  viability, T/C: 25.7%
Second compound 1 µM, first compound 0.0949 µM
  viability, T/C: 39.5%
Second compound 1 µM, first compound 0.3 µM
  viability, T/C: 35%
Second compound 1 µM, first compound 0.949 µM
  viability, T/C: 30.6%
Second compound 1 µM, first compound 3 µM
  viability, T/C: 25.2%
Second compound 3.16 µM, first compound 0.00949 µM
  viability, T/C: 19.7%
Second compound 3.16 µM, first compound 0.03 µM
  viability, T/C: 17.3%
Second compound 3.16 µM, first compound 0.0949 µM
  viability, T/C: 17.5%
Second compound 3.16 µM, first compound 0.3 µM
  viability, T/C: 14.9%
Second compound 3.16 µM, first compound 0.949 µM
  viability, T/C: 13.9%
Second compound 3.16 µM, first compound 3 µM
  viability, T/C: 9.12%
Second compound 10 µM, first compound 0.00949 µM
  viability, T/C: 14.6%
Second compound 10 µM, first compound 0.03 µM
  viability, T/C: 11.3%
Second compound 10 µM, first compound 0.0949 µM
  viability, T/C: 15.8%
Second compound 10 µM, first compound 0.3 µM
  viability, T/C: 9.21%
Second compound 10 µM, first compound 0.949 µM
  viability, T/C: 18.1%
Second compound 10 µM, first compound 3 µM
  viability, T/C: 1.44%

## COc1c(OCCCN2CCOCC2)ccc2c3n(c(=NC(=O)c4cnc(N)nc4)nc12)CCN3
Compound 0.00316 µM
  viability, T/C: 83.2% and 98.8% and 91.5%
Compound 0.01 µM
  viability, T/C: 97.2% and 78.8% and 72.1%
Compound 0.0316 µM
  viability, T/C: 76.5% and 75.6% and 63.8%
Compound 0.1 µM
  viability, T/C: 62.5% and 81.4% and 64.8%
Compound 0.316 µM
  viability, T/C: 41.9% and 61.3% and 48.6%
Compound 1 µM
  viability, T/C: 34.7% and 40% and 32.8%
Curve of compound
  IC50: 0.592 µM and 0.275 µM and 0.177 µM

## O=C(c1cc(Cc2n[nH]c(=O)c3ccccc23)ccc1F)N1CCN(C(=O)C2CC2)CC1 + CNC(C)C(=O)NC1CN(S(=O)(=O)c2cccc(S(=O)(=O)N3CCC4CCC(C(=O)NC(c5ccccc5)c5ccccc5)N4C(=O)C(NC(=O)C(C)NC)C3)c2)CCC2CCC(C(=O)NC(c3ccccc3)c3ccccc3)N2C1=O
[5]
  IC50: > 10 µM
[6]
  IC50: > 10 µM
[1]
  IC50: > 10 µM
[2]
  IC50: > 10 µM
[3]
  IC50: > 10 µM
[4]
  IC50: > 10 µM
[7]
  viability, T/C: 159%
[8]
  viability, T/C: 159%
[9]
  viability, T/C: 153%
[10]
  viability, T/C: 151%
Second compound 0.00316 µM, first compound 3.16 µM
  viability, T/C: 155%
Second compound 0.00316 µM, first compound 10 µM
  viability, T/C: 160%
[11]
  viability, T/C: 166%
[12]
  viability, T/C: 133%
[13]
  viability, T/C: 148%
[14]
  viability, T/C: 153%
Second compound 0.01 µM, first compound 3.16 µM
  viability, T/C: 138%
Second compound 0.01 µM, first compound 10 µM
  viability, T/C: 119%
[15]
  viability, T/C: 97.5%
[16]
  viability, T/C: 87.8%
[17]
  viability, T/C: 87.7%
[18]
  viability, T/C: 74.3%
Second compound 0.0316 µM, first compound 3.16 µM
  viability, T/C: 132%
Second compound 0.0316 µM, first compound 10 µM
  viability, T/C: 84.9%
[19]
  viability, T/C: 92%
[20]
  viability, T/C: 81.5%
[21]
  viability, T/C: 87.4%
[22]
  viability, T/C: 85.8%
Second compound 0.1 µM, first compound 3.16 µM
  viability, T/C: 138%
Second compound 0.1 µM, first compound 10 µM
  viability, T/C: 82.3%
[23]
  viability, T/C: 92.5%
[24]
  viability, T/C: 81.5%
[25]
  viability, T/C: 74.3%
[26]
  viability, T/C: 72.7%
Second compound 0.316 µM, first compound 3.16 µM
  viability, T/C: 138%
Second compound 0.316 µM, first compound 10 µM
  viability, T/C: 81.7%
[27]
  viability, T/C: 93.3%
[28]
  viability, T/C: 85.4%
[29]
  viability, T/C: 95.1%
[30]
  viability, T/C: 89.3%
Second compound 1 µM, first compound 3.16 µM
  viability, T/C: 138%
Second compound 1 µM, first compound 10 µM
  viability, T/C: 80.8%

## COc1c(OCCCN2CCOCC2)ccc2c3n(c(=NC(=O)c4cnc(N)nc4)nc12)CCN3 + CNC(C)C(=O)NC1CN(S(=O)(=O)c2cccc(S(=O)(=O)N3CCC4CCC(C(=O)NC(c5ccccc5)c5ccccc5)N4C(=O)C(NC(=O)C(C)NC)C3)c2)CCC2CCC(C(=O)NC(c3ccccc3)c3ccccc3)N2C1=O
[5]
  IC50: 0.113 µM
[6]
  IC50: 0.0675 µM
[1]
  IC50: 0.0693 µM
[2]
  IC50: 0.0745 µM
[3]
  IC50: 0.0752 µM
[4]
  IC50: 0.0509 µM
Second compound 0.00316 µM, first compound 0.00316 µM
  viability, T/C: 81.4%
Second compound 0.00316 µM, first compound 0.01 µM
  viability, T/C: 62.2%
[7]
  viability, T/C: 60.6%
[8]
  viability, T/C: 55.5%
[9]
  viability, T/C: 41.2%
[10]
  viability, T/C: 23.8%
Second compound 0.01 µM, first compound 0.00316 µM
  viability, T/C: 83.7%
Second compound 0.01 µM, first compound 0.01 µM
  viability, T/C: 67.5%
[11]
  viability, T/C: 54.4%
[12]
  viability, T/C: 47%
[13]
  viability, T/C: 40.9%
[14]
  viability, T/C: 26.4%
Second compound 0.0316 µM, first compound 0.00316 µM
  viability, T/C: 80.9%
Second compound 0.0316 µM, first compound 0.01 µM
  viability, T/C: 63.9%
[15]
  viability, T/C: 54.4%
[16]
  viability, T/C: 49.7%
[17]
  viability, T/C: 41.9%
[18]
  viability, T/C: 26.6%
Second compound 0.1 µM, first compound 0.00316 µM
  viability, T/C: 87.2%
Second compound 0.1 µM, first compound 0.01 µM
  viability, T/C: 61.9%
[19]
  viability, T/C: 59.5%
[20]
  viability, T/C: 50%
[21]
  viability, T/C: 38.4%
[22]
  viability, T/C: 27.7%
Second compound 0.316 µM, first compound 0.00316 µM
  viability, T/C: 68.9%
Second compound 0.316 µM, first compound 0.01 µM
  viability, T/C: 66.6%
[23]
  viability, T/C: 52.5%
[24]
  viability, T/C: 48.5%
[25]
  viability, T/C: 40.5%
[26]
  viability, T/C: 24.9%
Second compound 1 µM, first compound 0.00316 µM
  viability, T/C: 77.1%
Second compound 1 µM, first compound 0.01 µM
  viability, T/C: 56.4%
[27]
  viability, T/C: 53%
[28]
  viability, T/C: 49.1%
[29]
  viability, T/C: 37.2%
[30]
  viability, T/C: 24.3%

## C#Cc1c(F)ccc2cc(O)cc(-c3ncc4c(N5CC6CCC(C5)N6)nc(OCC56CCCN5CC(F)C6)nc4c3F)c12 (stereo not given)
Compound 0.0316 µM
  viability, T/C: 60.7% and 66.5% and 60.8%
Compound 0.1 µM
  viability, T/C: 52.9% and 52% and 53.5%
Compound 0.316 µM
  viability, T/C: 46% and 58.3% and 47.4%
Compound 1 µM
  viability, T/C: 48% and 45.1% and 47%
Compound 3.16 µM
  viability, T/C: 33.9% and 35.5% and 44.9%
Compound 10 µM
  viability, T/C: 18.6% and 32.2%
Curve of compound
  IC50: 0.342 µM and 0.452 µM and 0.387 µM
